Assay results published in the supplement of paper PMC10883282.
± gives the standard deviation of the averaged measurements.

Key:
Assay in all cases: relative viability vs DMSO control (72 h) (fraction); higher = more viable cells
A204 = tested on: A204
How it was run: (§1)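 After seeding at densities set for 80–90% confluence in 384-well plates, sarcoma cell lines waited 24 h before 2.5 µl of serially diluted compound was added. Source plates held 10 mM down to 0.0002 mM. Plates were incubated 72 h at 37 °C with 5% CO2, with 0.1% DMSO vehicle and a 5 µM positive control, and relative viability was taken from ATPLite as percent growth averaged over up to triplicate wells, with 1 set as full and 0 as none.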

G401 = tested on: G401
How it was run: as §1

HS729 = tested on: HS729
How it was run: as §1

KHOS-NP = tested on: KHOS-NP
How it was run: as §1

MES-SA = tested on: MES-SA
How it was run: as §1

RD = tested on: RD
How it was run: as §1

SK-ES-1 = tested on: SK-ES-1
How it was run: as §1

SK-LMS-1 = tested on: SK-LMS-1
How it was run: as §1

SW684 = tested on: SW684
How it was run: as §1

SW872 = tested on: SW872
How it was run: as §1

SYO-1 = tested on: SYO-1
How it was run: as §1

VA-ES-BJ = tested on: VA-ES-BJ
How it was run: as §1

Clc1ccc(Nc2nnc(Cc3ccncc3)c3ccccc23)cc1 [Vatalanib]
Conditions | relative viability
A204, 0.00017 µM | 1.05 ± 0.045
A204, 0.00051 µM | 1.09 ± 0.025
A204, 0.00152 µM | 1.04 ± 0.032
A204, 0.00457 µM | 1.03 ± 0.081
A204, 0.01372 µM | 1.04 ± 0.036
A204, 0.04115 µM | 1.02 ± 0.042
A204, 0.1235 µM | 0.972 ± 0.067
A204, 0.3704 µM | 0.904 ± 0.039
A204, 1.111 µM | 0.7796 ± 0.0073
A204, 3.333 µM | 0.483 ± 0.025
A204, 10 µM | 0.365 ± 0.017
G401, 0.00017 µM | 0.965 ± 0.029
G401, 0.00051 µM | 0.975 ± 0.03
G401, 0.00152 µM | 0.954 ± 0.037
G401, 0.00457 µM | 0.973 ± 0.048
G401, 0.01372 µM | 0.979 ± 0.049
G401, 0.04115 µM | 1 ± 0.028
G401, 0.1235 µM | 0.947 ± 0.053
G401, 0.3704 µM | 0.985 ± 0.024
G401, 1.111 µM | 0.933 ± 0.024
G401, 3.333 µM | 0.876 ± 0.029
G401, 10 µM | 0.7239 ± 0.00095
HS729, 0.00017 µM | 0.874 ± 0.024
HS729, 0.00051 µM | 0.906 ± 0.017
HS729, 0.00152 µM | 0.915 ± 0.028
HS729, 0.00457 µM | 0.88 ± 0.057
HS729, 0.01372 µM | 0.916 ± 0.072
HS729, 0.04115 µM | 0.896 ± 0.083
HS729, 0.1235 µM | 0.864 ± 0.03
HS729, 0.3704 µM | 0.871 ± 0.02
HS729, 1.111 µM | 0.832 ± 0.038
HS729, 3.333 µM | 0.898 ± 0.029
HS729, 10 µM | 0.934 ± 0.078
KHOS-NP, 0.00017 µM | 1.041 ± 0.0022
KHOS-NP, 0.00051 µM | 1.054 ± 0.0039
KHOS-NP, 0.00152 µM | 1.04 ± 0.015
KHOS-NP, 0.00457 µM | 1.06 ± 0.023
KHOS-NP, 0.01372 µM | 1.03 ± 0.016
KHOS-NP, 0.04115 µM | 1.05 ± 0.011
KHOS-NP, 0.1235 µM | 1.058 ± 0.0063
KHOS-NP, 0.3704 µM | 1.062 ± 0.0076
KHOS-NP, 1.111 µM | 1.07 ± 0.025
KHOS-NP, 3.333 µM | 1.07 ± 0.026
KHOS-NP, 10 µM | 1.08 ± 0.038
MES-SA, 0.00017 µM | 0.897 ± 0.05
MES-SA, 0.00051 µM | 0.905 ± 0.03
MES-SA, 0.00152 µM | 0.908 ± 0.023
MES-SA, 0.00457 µM | 0.902 ± 0.048
MES-SA, 0.01372 µM | 0.925 ± 0.024
MES-SA, 0.04115 µM | 0.92 ± 0.043
MES-SA, 0.1235 µM | 0.922 ± 0.046
MES-SA, 0.3704 µM | 0.938 ± 0.031
MES-SA, 1.111 µM | 0.937 ± 0.046
MES-SA, 3.333 µM | 0.919 ± 0.012
MES-SA, 10 µM | 0.854 ± 0.042
RD, 0.00017 µM | 1.09 ± 0.035
RD, 0.00051 µM | 1.1 ± 0.031
RD, 0.00152 µM | 1.1 ± 0.024
RD, 0.00457 µM | 1.095 ± 0.005
RD, 0.01372 µM | 1.093 ± 0.0065
RD, 0.04115 µM | 1.08 ± 0.033
RD, 0.1235 µM | 1.09 ± 0.025
RD, 0.3704 µM | 1.12 ± 0.02
RD, 1.111 µM | 1.12 ± 0.03
RD, 3.333 µM | 1.11 ± 0.066
RD, 10 µM | 1.03 ± 0.023
SK-ES-1, 0.00017 µM | 0.978 ± 0.03
SK-ES-1, 0.00051 µM | 0.987 ± 0.065
SK-ES-1, 0.00152 µM | 0.968 ± 0.053
SK-ES-1, 0.00457 µM | 1.04 ± 0.044
SK-ES-1, 0.01372 µM | 1.03 ± 0.026
SK-ES-1, 0.04115 µM | 1.01 ± 0.03
SK-ES-1, 0.1235 µM | 0.995 ± 0.024
SK-ES-1, 0.3704 µM | 1.04 ± 0.024
SK-ES-1, 1.111 µM | 1.05 ± 0.053
SK-ES-1, 3.333 µM | 1.02 ± 0.031
SK-ES-1, 10 µM | 0.91 ± 0.011
SK-LMS-1, 0.00017 µM | 1.03 ± 0.027
SK-LMS-1, 0.00051 µM | 1.02 ± 0.041
SK-LMS-1, 0.00152 µM | 0.992 ± 0.045
SK-LMS-1, 0.00457 µM | 1 ± 0.041
SK-LMS-1, 0.01372 µM | 1.026 ± 0.0034
SK-LMS-1, 0.04115 µM | 1 ± 0.021
SK-LMS-1, 0.1235 µM | 1.016 ± 0.0066
SK-LMS-1, 0.3704 µM | 0.9565 ± 0.0025
SK-LMS-1, 1.111 µM | 0.967 ± 0.034
SK-LMS-1, 3.333 µM | 0.938 ± 0.026
SK-LMS-1, 10 µM | 0.858 ± 0.059
SW684, 0.00017 µM | 1.13 ± 0.043
SW684, 0.00051 µM | 1.0999 ± 0.00014
SW684, 0.00152 µM | 1.09 ± 0.04
SW684, 0.00457 µM | 1.11 ± 0.012
SW684, 0.01372 µM | 1.11 ± 0.064
SW684, 0.04115 µM | 1.1 ± 0.018
SW684, 0.1235 µM | 1.08 ± 0.044
SW684, 0.3704 µM | 1.12 ± 0.022
SW684, 1.111 µM | 1.09 ± 0.087
SW684, 3.333 µM | 1.03 ± 0.093
SW684, 10 µM | 1.03 ± 0.061
SW872, 0.00017 µM | 1.01 ± 0.018
SW872, 0.00051 µM | 1.01 ± 0.051
SW872, 0.00152 µM | 1.02 ± 0.017
SW872, 0.00457 µM | 1.026 ± 0.0018
SW872, 0.01372 µM | 0.9937 ± 0.0039
SW872, 0.04115 µM | 1.02 ± 0.037
SW872, 0.1235 µM | 1.022 ± 0.0059
SW872, 0.3704 µM | 1.021 ± 0.0013
SW872, 1.111 µM | 1.02 ± 0.042
SW872, 3.333 µM | 1.03 ± 0.0057
SW872, 10 µM | 0.971 ± 0.023
SYO-1, 0.00017 µM | 0.921 ± 0.029
SYO-1, 0.00051 µM | 0.915 ± 0.048
SYO-1, 0.00152 µM | 0.937 ± 0.048
SYO-1, 0.00457 µM | 0.926 ± 0.013
SYO-1, 0.01372 µM | 0.929 ± 0.038
SYO-1, 0.04115 µM | 0.929 ± 0.049
SYO-1, 0.1235 µM | 0.906 ± 0.057
SYO-1, 0.3704 µM | 0.882 ± 0.052
SYO-1, 1.111 µM | 0.807 ± 0.096
SYO-1, 3.333 µM | 0.735 ± 0.01
SYO-1, 10 µM | 0.651 ± 0.056
VA-ES-BJ, 0.00017 µM | 1.01 ± 0.041
VA-ES-BJ, 0.00051 µM | 1.01 ± 0.049
VA-ES-BJ, 0.00152 µM | 1 ± 0.057
VA-ES-BJ, 0.00457 µM | 1.04 ± 0.041
VA-ES-BJ, 0.01372 µM | 1.02 ± 0.066
VA-ES-BJ, 0.04115 µM | 1.02 ± 0.054
VA-ES-BJ, 0.1235 µM | 1.03 ± 0.082
VA-ES-BJ, 0.3704 µM | 1.05 ± 0.069
VA-ES-BJ, 1.111 µM | 1.02 ± 0.053
VA-ES-BJ, 3.333 µM | 1.07 ± 0.056
VA-ES-BJ, 10 µM | 1.05 ± 0.031
